Experiments:
Assay in all cases: biochemical
Parameters in all cases: DiscoverX KinomeScan competition binding assay across human kinases; per cent of control at 10 and 100 uM
[1] = target: EPHB4 (Homo sapiens, UniProt P54760); settings: competition binding, % of control; read-out: Percent Control (100 uM Levosimendan)
How it was run: (§1)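 KinomeScan competition binding was run across a human kinase panel at 10 μM and 100 μM levosimendan. Results are %control = (test − positive control)/(negative control − positive control) × 100.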

[2] = target: T1, MEK4 (Homo sapiens, UniProt P45985); settings: competition binding, % of control; read-out: Percent Control (100 uM Levosimendan)
T1 construct: gene MAP2K4
How it was run: as §1

[3] = target: CSF1R (Homo sapiens, UniProt P07333); settings: competition binding, % of control
How it was run: as §1

[4] = target: T2, YES (Homo sapiens, UniProt P07947); settings: competition binding, % of control
T2 construct: gene YES1
How it was run: as §1

[5] = target: DYRK1B (Homo sapiens, UniProt Q9Y463); settings: competition binding, % of control; read-out: Percent Control (100 uM Levosimendan)
How it was run: as §1

[6] = target: TBK1 (Homo sapiens, UniProt Q9UHD2); settings: competition binding, % of control
How it was run: as §1

[7] = target: T3, ERK1 (Homo sapiens, UniProt P27361); settings: competition binding, % of control; read-out: Percent Control (100 uM Levosimendan)
T3 construct: gene MAPK3
How it was run: as §1

[8] = target: T4, S6K1 (Homo sapiens, UniProt P23443); settings: competition binding, % of control
T4 construct: gene RPS6KB1
How it was run: as §1

[9] = target: PDGFRB (Homo sapiens, UniProt P09619); settings: competition binding, % of control
How it was run: as §1

[10] = target: EPHA4 (Homo sapiens, UniProt P54764); settings: competition binding, % of control; read-out: Percent Control (100 uM Levosimendan)
How it was run: as §1

[11] = target: T5, ABL1(E255K)-phosphorylated (Homo sapiens, UniProt P00519, E255K); settings: competition binding, % of control
T5 construct: phosphorylated
How it was run: as §1

[12] = target: EGFR(T790M) (Homo sapiens, UniProt P00533, T790M); settings: competition binding, % of control
How it was run: as §1

[13] = target: T6, ABL1(F317L)-nonphosphorylated (Homo sapiens, UniProt P00519, F317L); settings: competition binding, % of control; read-out: Percent Control (100 uM Levosimendan)
T6 construct: nonphosphorylated
How it was run: as §1

[14] = target: T7, p38-beta (Homo sapiens, UniProt Q15759); settings: competition binding, % of control; read-out: Percent Control (100 uM Levosimendan)
T7 construct: gene MAPK11
How it was run: as §1

[15] = read-out: Percent Control (10 uM Levosimendan)
[16] = read-out: Percent Control (100 uM Levosimendan)

EGFR(T790M), sequence (P00533 whole entry T790M): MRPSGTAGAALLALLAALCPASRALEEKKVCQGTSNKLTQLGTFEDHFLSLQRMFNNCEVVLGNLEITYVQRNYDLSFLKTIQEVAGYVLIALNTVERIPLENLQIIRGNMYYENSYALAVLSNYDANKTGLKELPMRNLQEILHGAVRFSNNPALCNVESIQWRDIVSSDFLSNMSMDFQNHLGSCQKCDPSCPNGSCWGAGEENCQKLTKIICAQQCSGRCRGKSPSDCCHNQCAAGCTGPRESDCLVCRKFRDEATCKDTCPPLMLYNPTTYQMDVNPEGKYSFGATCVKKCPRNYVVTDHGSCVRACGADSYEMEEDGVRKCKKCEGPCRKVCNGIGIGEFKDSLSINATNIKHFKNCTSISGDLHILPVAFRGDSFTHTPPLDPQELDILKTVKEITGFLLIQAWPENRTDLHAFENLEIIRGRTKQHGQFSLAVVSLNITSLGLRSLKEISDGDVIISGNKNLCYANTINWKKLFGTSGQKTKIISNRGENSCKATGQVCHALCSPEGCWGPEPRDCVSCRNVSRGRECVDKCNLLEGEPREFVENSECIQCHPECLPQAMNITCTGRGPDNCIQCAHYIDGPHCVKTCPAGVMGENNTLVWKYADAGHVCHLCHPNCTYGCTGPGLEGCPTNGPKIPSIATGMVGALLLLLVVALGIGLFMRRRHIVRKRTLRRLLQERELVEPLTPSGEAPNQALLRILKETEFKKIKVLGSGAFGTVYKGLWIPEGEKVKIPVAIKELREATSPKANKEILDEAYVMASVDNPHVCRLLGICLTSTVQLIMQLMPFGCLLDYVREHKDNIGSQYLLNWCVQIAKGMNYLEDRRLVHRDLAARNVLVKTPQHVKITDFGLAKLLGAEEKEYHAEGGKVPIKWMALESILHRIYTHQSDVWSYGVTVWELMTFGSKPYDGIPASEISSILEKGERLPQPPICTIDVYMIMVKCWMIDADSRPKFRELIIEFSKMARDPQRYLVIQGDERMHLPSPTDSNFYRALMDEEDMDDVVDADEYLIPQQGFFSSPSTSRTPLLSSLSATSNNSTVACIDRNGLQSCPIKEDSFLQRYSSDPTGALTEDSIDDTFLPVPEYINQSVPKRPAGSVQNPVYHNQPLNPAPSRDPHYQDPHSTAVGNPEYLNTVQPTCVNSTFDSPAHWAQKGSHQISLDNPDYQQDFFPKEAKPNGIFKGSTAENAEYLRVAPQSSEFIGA
T4 sequence (P23443 whole entry): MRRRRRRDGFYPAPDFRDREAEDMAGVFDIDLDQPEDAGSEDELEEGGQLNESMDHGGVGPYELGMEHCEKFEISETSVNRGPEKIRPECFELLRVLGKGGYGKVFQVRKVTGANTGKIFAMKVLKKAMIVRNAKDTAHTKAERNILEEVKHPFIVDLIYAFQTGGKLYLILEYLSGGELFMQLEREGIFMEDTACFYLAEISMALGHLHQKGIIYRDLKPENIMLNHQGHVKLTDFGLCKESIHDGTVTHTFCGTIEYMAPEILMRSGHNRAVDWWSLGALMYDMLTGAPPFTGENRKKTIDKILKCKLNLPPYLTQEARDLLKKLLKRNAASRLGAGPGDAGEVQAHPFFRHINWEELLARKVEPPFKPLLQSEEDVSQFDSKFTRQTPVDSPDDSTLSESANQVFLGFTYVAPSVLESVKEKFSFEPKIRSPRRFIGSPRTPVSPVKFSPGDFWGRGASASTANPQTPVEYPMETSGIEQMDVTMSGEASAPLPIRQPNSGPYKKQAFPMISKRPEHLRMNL
T2 sequence (P07947 whole entry): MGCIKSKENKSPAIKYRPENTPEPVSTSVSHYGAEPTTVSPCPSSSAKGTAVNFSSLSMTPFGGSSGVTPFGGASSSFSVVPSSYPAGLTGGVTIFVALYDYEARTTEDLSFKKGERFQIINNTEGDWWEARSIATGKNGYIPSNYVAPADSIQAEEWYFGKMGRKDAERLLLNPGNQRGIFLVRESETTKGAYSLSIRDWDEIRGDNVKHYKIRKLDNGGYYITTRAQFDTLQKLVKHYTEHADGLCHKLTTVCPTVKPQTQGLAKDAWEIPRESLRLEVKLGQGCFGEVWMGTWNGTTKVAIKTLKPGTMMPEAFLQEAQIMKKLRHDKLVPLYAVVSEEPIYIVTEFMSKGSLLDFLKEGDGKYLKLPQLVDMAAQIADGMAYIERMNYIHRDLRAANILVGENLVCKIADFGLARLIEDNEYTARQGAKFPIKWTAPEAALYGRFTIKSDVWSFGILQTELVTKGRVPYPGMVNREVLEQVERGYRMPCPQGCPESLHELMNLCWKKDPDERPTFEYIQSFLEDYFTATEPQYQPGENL
T5 sequence (P00519 whole entry E255K): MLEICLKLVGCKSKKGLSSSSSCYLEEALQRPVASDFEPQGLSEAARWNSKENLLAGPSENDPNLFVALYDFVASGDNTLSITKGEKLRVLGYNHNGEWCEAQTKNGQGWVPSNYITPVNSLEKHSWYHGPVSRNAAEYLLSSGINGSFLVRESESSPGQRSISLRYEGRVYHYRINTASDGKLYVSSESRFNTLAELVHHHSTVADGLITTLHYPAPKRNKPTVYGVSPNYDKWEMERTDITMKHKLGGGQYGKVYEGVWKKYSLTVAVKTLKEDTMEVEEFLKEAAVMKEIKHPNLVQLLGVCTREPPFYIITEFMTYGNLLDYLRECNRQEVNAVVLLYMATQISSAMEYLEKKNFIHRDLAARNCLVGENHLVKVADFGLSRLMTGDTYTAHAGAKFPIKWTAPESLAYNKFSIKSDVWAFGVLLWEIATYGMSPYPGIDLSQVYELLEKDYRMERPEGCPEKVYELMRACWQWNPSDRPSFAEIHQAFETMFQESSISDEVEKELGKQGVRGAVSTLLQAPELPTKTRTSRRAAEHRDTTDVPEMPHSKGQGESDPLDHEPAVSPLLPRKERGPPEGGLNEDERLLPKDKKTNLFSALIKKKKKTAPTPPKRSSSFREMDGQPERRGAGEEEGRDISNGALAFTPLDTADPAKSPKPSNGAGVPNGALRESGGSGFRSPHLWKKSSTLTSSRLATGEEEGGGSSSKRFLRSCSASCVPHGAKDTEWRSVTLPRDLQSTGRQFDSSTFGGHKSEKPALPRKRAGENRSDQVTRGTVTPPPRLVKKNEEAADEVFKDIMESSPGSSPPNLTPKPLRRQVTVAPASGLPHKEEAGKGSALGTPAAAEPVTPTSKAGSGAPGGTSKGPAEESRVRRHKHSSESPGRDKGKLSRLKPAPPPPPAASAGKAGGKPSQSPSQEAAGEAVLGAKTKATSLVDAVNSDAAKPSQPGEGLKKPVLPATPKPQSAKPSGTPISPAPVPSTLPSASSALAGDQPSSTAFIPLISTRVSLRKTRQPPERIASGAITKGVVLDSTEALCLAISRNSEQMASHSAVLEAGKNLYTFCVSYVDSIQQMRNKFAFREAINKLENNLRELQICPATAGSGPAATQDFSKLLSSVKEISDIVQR
PDGFRB, sequence (P09619 whole entry): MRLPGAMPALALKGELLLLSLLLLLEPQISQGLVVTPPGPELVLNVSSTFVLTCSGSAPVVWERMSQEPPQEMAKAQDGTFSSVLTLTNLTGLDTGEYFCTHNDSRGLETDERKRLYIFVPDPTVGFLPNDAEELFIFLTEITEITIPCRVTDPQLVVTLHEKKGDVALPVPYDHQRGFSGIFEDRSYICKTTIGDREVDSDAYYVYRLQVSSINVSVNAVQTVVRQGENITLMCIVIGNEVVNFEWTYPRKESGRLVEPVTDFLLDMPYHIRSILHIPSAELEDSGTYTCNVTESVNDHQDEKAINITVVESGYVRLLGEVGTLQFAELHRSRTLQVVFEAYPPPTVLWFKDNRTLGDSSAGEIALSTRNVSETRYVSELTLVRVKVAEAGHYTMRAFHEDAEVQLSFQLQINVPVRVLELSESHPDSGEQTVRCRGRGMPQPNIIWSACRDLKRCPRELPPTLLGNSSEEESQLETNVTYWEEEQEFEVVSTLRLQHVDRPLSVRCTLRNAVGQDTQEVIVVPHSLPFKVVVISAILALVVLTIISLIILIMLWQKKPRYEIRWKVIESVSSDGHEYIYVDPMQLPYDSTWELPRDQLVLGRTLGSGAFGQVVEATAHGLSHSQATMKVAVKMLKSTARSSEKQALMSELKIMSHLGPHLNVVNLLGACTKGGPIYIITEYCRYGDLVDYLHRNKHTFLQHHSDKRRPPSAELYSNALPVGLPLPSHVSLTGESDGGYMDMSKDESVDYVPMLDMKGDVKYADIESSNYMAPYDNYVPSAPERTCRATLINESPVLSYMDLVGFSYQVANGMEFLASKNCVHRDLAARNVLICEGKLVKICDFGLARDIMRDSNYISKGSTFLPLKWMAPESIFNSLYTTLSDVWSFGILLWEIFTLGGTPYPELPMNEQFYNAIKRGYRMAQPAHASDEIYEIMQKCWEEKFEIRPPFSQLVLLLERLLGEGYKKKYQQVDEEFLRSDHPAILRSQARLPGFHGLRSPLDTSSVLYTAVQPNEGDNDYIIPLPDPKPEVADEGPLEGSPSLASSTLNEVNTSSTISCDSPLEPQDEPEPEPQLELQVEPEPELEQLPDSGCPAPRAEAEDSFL
T6 sequence (P00519 whole entry F317L): as the sequence (P00519 whole entry E255K) above, with K255E, F317L counted along it
T1 sequence (P45985 whole entry): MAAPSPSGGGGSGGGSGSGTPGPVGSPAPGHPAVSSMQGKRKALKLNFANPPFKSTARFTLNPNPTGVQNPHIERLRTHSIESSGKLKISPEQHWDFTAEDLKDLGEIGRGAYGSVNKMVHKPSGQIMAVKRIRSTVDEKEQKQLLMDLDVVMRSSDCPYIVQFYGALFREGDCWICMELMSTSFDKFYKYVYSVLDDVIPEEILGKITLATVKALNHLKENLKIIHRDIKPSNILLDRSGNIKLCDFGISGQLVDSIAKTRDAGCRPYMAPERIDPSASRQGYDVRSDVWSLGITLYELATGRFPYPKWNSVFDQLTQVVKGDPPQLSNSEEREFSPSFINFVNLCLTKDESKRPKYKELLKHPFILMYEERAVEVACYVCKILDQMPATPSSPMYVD

remaining binding at 100 µM [1]: 85%
remaining binding at 100 µM [2]: 92%
remaining binding at 10 µM [3, 15]: 78%
remaining binding at 100 µM [3, 16]: 40%
remaining binding at 10 µM [4, 15]: 97%
remaining binding at 100 µM [4, 16]: 0%
remaining binding at 100 µM [5]: 100%
remaining binding at 10 µM [6, 15]: 94%
remaining binding at 100 µM [6, 16]: 38%
remaining binding at 100 µM [7]: 87%
remaining binding at 10 µM [8, 15]: 84%
remaining binding at 100 µM [8, 16]: 43%
remaining binding at 10 µM [9, 15]: 58%
remaining binding at 100 µM [9, 16]: 12%
remaining binding at 100 µM [10]: 82%
remaining binding at 10 µM [11, 15]: 97%
remaining binding at 100 µM [11, 16]: 34%
remaining binding at 10 µM [12, 15]: 88%
remaining binding at 100 µM [12, 16]: 31%
remaining binding at 100 µM [13]: 100%
remaining binding at 100 µM [14]: 94%
Compound: C[C@@H]1CC(=O)NN=C1c1ccc(NN=C(C#N)C#N)cc1 [levosimendan]
